What was measured:
[1] = tested on: human peripheral blood mononuclear cells (PBMC); assay: Cell viability of quiescent and PHA-activated PBMC; format: cell-based; details: up to 10 µM, 24 h
From the text: U-937, HL-60, MOLT-3, NALM-6, and SK-MEL-1 cells were from DSMZ (German Collection of Microorganisms and Cell Cultures, Braunschweig, Germany). U-937/Bcl-2 cells were kindly provided by Dr. Jacqueline Bréard (INSERM U749, Faculté de Pharmacie Paris-Sud, Châtenay-Malabry, France). The U-937 is a pro-monocytic, human promyelocytic leukemia cell line that was isolated from a histiocytic lymphoma. HL-60 is a human acute myeloid leukemia cell line. MOLT-3 is a human acute lymphoblastic leukemia cell line. NALM-6 is a human B cell precursor leukemia. SK-MEL-1 is a human melanoma cell line growing singly or in clumps (occasional giant, polynucleated cell) in suspension. […] The cytotoxicity of the synthetic compounds was evaluated by colorimetric 3-(4,5-dimethyl-2-thiazolyl-)-2,5-diphenyl-2H-tetrazolium bromide (MTT) assay as previously described. […] Sodium dodecyl sulfate (10% w/v) in 0.05 M HCl was added to solubilize the reaction products and the absorbance was measured at 570 nm with a reference wavelength of […] using an ELISA reader (Bio-Rad, Hercules, CA, USA). […]
Figure 2 (a) Dose-response study of hybrid chalcone–guanidines on human U-937 leukemia cell viability. Cells were cultured in the presence of increasing concentrations of selected guanidines for 72 h, and thereafter cell viability was determined by the MTT assay. […]

[2] = tested on: U-937 cells; assay: Western blot of PARP, caspases and cytosolic cytochrome c; format: cell-based, human; details: 24 h; for full-length PARP protein (immunoblot): U-937, 10 µM; for mitochondrial cytochrome c release (cytosolic fraction, immunoblot): U-937, increasing concentrations
Experimental: For whole cell lysates, cells were harvested by centrifugation (500× g, 10 min, 4 °C), washed twice with PBS, and pellets were resuspended in lysis buffer (1% Triton X-100, 10 mM sodium fluoride, 2 mM EDTA, 20 mM Tris-HCl (pH 7.4), 2 mM tetrasodium pyrophosphate, 10% glycerol, 137 mM NaCl, and 20 mM sodium β-glycerophosphate), with the protease inhibitors phenylmethylsulfonyl fluoride (PMSF, 1 mM), aprotinin, leupeptin, and pepstatin A (5 μg/mL each) and kept on ice for 15 min. Cells were sonicated on ice 5 times (5 s each, with intervals between each sonication of 5 s) with a Braun Labsonic 2000 microtip sonifier and centrifuged (11,000× g, 10 min, 4 °C). For subcellular fractionation, cells were washed twice with PBS and then resuspended in ice-cold buffer (20 mM HEPES (pH 7.5), 250 mM sucrose, 10 mM KCl, 1.5 mM MgCl2, 1 mM EDTA, 1 mM EGTA, and 1 mM dithiothreitol containing protease inhibitors (0.1 mM PMSF and 1 µg/mL leupeptin, aprotinin, and pepstatin A)). After 15 min on ice, cells were lysed by pushing them several times through a 29-gauge needle, and the lysate was centrifuged at 1000× g for 5 min at 4 °C. The resulting supernatant fraction was centrifuged at 15,000× g for 20 min at 4 °C, and the resulting supernatant was used as the cytosolic fraction. The Bradford method was used to determine protein concentration. The samples loaded in sodium dodecyl sulfate-polyacrylamide gel (from 7.5 to 15% depending on the molecular weight of interest) were prepared with the same protein amount and boiled for 5 min. The proteins were transferred to poly(vinylidene difluoride) membranes for 20 h at 20 V. The membranes were blocked with 10% nonfat milk in Tris-buffered saline (50 mM Tris-HCl (pH 7.4), 150 mM NaCl) containing 0.1% Tween-20 (TBST) for 1 h, followed by incubation with specific antibodies against caspase-3, PARP, caspase-9, β-actin, tubulin, and cytochrome c overnight at 4 °C. Membranes were washed three times with TBST and incubated for 1 h with the specific secondary antibody and the antigen-antibodies complexes were visualized by enhanced chemiluminescence using the manufacturer’s protocol.

Structure (SMILES)	cytotoxicity against proliferating and quiescent lymphocytes (PBMC) versus U-937 [1]	full-length PARP protein (immunoblot) [2]	mitochondrial cytochrome c release (cytosolic fraction, immunoblot) [2]
Cc1ccc(S(=O)(=O)NC(=Nc2ccc(/C=C/C(=O)c3c(O)cccc3OCc3ccccc3)cc2)N2CCN(C)CC2)cc1 [Compound 6f]	lower cytotoxicity	dramatically decreased	concentration-dependent release
O=C(/C=C/c1ccc(N=C(Nc2ccccc2)N2CCCCC2)cc1)c1c(O)cccc1OCc1ccccc1 [Compound 6i]	lower cytotoxicity	dramatically decreased	concentration-dependent release
